The record followed here is ChEMBL document CHEMBL1201862, “PubChem BioAssay data set” (2004).

Assay [1] has as its target DNA dC->dU-editing enzyme APOBEC-3A (Homo sapiens, UniProt P31941). Put plainly: Dose Response confirmation of small molecule APOBEC3A DNA Deaminase Inhibitors via a fluorescence-based single-stranded DNA deaminase assay. [Related pubchem assays (depositor defined):AID493011, AID493024]. The format is functional.
Assay [2] has as its target DNA dC->dU-editing enzyme APOBEC-3G (Homo sapiens, UniProt Q9HC16). The format is functional.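 Further: Dose-response counterscreen measuring inhibition of APOBEC3G DNA deaminase activity, run while confirming APOBEC3A inhibitors.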
A short description of assay [3]: THP-1 cell cytotoxicity, dose response, cytotoxicity control for non-replicating M. tuberculosis project (AID 489025). The format is functional.
Assay [4] is described as follows: HepG2 cell cytotoxicity, dose response, cytotoxicity control for non-replicating M. tuberculosis project (AID 489018). The format is functional. The following applies: Mycobacterium tuberculosis.
The target of assay [5] is T1, Ubiquitin-conjugating enzyme E2 N (Homo sapiens, UniProt P61088).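 Further: Dose-response confirmation in a TR-FRET assay detecting UBC13-driven polyubiquitin chain formation, inhibition measured.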
T1 sequence (P61088 whole entry): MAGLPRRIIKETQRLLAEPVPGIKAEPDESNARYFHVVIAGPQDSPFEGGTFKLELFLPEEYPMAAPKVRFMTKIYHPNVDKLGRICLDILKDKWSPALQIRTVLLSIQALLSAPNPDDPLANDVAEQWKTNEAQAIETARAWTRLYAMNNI
The format is functional.

A short description of assay [6]: Vero E6 cell cytotoxicity, dose response, cytotoxicity control for non-replicating M. tuberculosis project, secondary assay (AID 492998). Conditions: Vero C1008. The assay is classed as functional, VeroE6.
Assay [7] deals with T2, Microphthalmia-associated transcription factor (Homo sapiens, UniProt O75030).
T2 sequence (O75030 whole entry): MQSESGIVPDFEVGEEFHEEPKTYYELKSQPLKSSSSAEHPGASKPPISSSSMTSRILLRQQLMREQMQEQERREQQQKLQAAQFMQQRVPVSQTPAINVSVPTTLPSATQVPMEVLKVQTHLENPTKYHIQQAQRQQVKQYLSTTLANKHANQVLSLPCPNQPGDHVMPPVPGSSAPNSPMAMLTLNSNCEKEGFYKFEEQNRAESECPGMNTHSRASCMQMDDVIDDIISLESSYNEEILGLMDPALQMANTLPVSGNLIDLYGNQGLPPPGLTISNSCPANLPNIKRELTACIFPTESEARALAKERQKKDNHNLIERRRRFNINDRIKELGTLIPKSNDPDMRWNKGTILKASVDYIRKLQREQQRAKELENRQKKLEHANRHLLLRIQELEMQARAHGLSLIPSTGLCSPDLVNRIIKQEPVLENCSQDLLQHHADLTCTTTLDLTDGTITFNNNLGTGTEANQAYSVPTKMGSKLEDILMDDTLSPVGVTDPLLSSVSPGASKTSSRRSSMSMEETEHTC
Put plainly: TRPM1 promoter luciferase signal decrease, dose response, MITF inhibitor project, cell-based, SK-MEL-5, cherry-picked, set 3 (AID 493073).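 Further: SK-MEL-5 melanoma cells with luciferase driven by the MITF target TRPM1 promoter.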 The format is functional.

Another assay can be described thus: cells. The format is functional.
Another assay has as its system A-375. As to the kind of experiment: A375 melanoma cell viability reduction, dose response, counter-screen for MITF modulator project, cherry-pick samples, set 2 (AID 540335). The assay is classed as functional, cell-based. The following applies: Homo sapiens.
Assay [8] in a line: MDA-MB-231 cell growth inhibition, dose response, cytotoxicity control for RAD54 inhibitor project, CellTiter-Glo luminescence, cherry-pick (AID 651692). The format is functional, cell-based. (Cellular ATP, detected with luciferase, serves as a proxy for viable cell number.)
Assay [9] deals with T3, DNA repair and recombination protein RAD54-like (Homo sapiens, UniProt Q92698).
T3 sequence (Q92698 whole entry): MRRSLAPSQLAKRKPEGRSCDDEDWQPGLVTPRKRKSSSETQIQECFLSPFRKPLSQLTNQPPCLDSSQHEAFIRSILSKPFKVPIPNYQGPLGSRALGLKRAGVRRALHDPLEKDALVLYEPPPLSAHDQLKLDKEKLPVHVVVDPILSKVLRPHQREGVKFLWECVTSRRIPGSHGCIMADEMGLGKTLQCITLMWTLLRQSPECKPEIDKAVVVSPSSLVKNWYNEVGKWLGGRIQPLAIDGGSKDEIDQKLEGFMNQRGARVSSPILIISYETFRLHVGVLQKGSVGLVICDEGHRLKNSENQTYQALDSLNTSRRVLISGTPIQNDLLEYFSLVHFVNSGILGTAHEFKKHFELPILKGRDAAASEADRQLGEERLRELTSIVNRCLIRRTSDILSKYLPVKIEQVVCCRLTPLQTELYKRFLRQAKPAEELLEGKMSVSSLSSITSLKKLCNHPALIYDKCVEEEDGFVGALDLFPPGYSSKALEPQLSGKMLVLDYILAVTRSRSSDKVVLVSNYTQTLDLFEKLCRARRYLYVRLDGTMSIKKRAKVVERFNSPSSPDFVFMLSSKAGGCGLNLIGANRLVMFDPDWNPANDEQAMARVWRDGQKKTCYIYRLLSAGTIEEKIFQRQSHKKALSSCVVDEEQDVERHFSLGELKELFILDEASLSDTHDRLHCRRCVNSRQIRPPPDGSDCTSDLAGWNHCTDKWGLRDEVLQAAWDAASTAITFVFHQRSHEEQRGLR
As to the kind of experiment: inhibitors of human RAD54 branch migration, confirmation, biochemical, fluorescence, cherry-picked samples, dose series (AID 651657). The assay is classed as functional.

Assay [10] deals with SWI/SNF-related matrix-associated actin-dependent regulator of chromatin subfamily A member 2 (Homo sapiens, UniProt P51531). Put plainly: Luminescence-based cell-based high throughput dose response assay to identify activators of the function of SWI/SNF related, matrix associated, actin dependent regulator of chromatin, subfamily a, member 2 (SMARCA2, BRM). The assay is classed as functional.

A short description of assay [11]: Counterscreen for activators of the function of SWI/SNF related, matrix associated, actin dependent regulator of chromatin, subfamily a, member 2 (SMARCA2, BRM): Luminescence-based cell-based high throughput dose response assay to identify non-selective compounds using the VP16 reporter assay. The assay is classed as functional. Background: The purpose of a counterscreen is to sort out artefacts and off-target activity.

Assay [12] concerns the target DNA damage-inducible transcript 3 protein (Mus musculus, UniProt P35639). The assay is classed as functional, Cricetulus griseus.
In a further assay the target is X-box-binding protein 1 (Homo sapiens, UniProt P17861). The assay is classed as functional, Cricetulus griseus.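 Further: confirmatory dose-response counter-screen serving a CHOP assay.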
X-box-binding protein 1, sequence (P17861 whole entry): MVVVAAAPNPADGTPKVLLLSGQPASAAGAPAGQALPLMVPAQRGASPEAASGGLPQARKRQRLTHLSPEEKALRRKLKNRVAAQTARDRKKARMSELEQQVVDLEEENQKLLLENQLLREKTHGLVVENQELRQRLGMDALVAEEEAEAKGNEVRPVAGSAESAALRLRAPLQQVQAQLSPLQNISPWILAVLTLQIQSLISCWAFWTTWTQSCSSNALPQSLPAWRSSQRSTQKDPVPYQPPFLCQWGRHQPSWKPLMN
Assay [13] has as its target ADP-ribosylation factor GTPase-activating protein 1 (Rattus norvegicus, UniProt Q62848). As to the kind of experiment: Fluorescence polarization-based biochemical high throughput dose response screening assay to identify inhibitors of ADP-ribosylation factor GTPase activating protein 1 (ARFGAP1). The format is functional.
The target in assay [14] is Arf-GAP with SH3 domain, ANK repeat and PH domain-containing protein 1 (Homo sapiens, UniProt Q9ULH1). The format is functional.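 Further: biochemical fluorescence polarization dose–response screen measuring inhibition of ASAP1; ASAP1 GAP domain stimulating GTP hydrolysis by truncated human ARF1.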
Arf-GAP with SH3 domain, ANK repeat and PH domain-containing protein 1, sequence (Q9ULH1 whole entry, the tested form may be a part): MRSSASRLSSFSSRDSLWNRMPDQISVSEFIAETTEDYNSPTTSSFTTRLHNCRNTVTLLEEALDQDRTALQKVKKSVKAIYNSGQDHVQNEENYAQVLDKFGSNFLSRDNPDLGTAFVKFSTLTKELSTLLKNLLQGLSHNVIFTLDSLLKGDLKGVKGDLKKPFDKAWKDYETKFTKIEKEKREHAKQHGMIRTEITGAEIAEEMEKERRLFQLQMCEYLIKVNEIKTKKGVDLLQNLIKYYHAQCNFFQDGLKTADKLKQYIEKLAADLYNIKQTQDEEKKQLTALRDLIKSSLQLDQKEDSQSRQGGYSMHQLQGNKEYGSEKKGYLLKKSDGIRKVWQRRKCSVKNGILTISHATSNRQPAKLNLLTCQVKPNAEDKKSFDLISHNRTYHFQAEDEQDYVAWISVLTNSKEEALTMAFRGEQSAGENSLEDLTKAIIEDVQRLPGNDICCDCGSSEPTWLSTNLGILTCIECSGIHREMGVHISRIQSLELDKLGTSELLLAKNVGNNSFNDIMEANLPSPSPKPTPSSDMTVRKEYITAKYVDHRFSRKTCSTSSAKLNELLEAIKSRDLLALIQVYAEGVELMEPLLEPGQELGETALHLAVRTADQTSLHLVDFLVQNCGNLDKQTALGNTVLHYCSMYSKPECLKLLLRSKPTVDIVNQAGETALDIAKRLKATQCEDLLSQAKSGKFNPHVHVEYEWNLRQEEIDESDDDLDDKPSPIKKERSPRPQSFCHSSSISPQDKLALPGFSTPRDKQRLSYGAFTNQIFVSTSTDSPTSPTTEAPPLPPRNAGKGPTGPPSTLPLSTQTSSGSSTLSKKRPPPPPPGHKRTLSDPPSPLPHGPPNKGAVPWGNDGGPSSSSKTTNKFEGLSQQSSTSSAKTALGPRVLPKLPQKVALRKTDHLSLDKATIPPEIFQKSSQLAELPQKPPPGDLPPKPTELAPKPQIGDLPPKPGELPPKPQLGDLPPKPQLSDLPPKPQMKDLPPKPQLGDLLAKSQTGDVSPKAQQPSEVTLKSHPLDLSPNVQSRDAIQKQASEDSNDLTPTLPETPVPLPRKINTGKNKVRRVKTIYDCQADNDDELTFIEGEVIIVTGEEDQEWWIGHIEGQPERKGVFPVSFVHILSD
Another assay deals with Prothrombin (Homo sapiens, UniProt P00734). Put plainly: Thrombin 1536 HTS Dose Response Confirmation. [Related pubchem assays: 1046 (Thrombin 1536 HTS; hits were confirmed in this assay)]. The format is functional.
Assay [15] has as its target T4, Replicative DNA helicase DnaB (Mycobacterium tuberculosis, UniProt P9WMR3).
T4 sequence (P9WMR3 whole entry): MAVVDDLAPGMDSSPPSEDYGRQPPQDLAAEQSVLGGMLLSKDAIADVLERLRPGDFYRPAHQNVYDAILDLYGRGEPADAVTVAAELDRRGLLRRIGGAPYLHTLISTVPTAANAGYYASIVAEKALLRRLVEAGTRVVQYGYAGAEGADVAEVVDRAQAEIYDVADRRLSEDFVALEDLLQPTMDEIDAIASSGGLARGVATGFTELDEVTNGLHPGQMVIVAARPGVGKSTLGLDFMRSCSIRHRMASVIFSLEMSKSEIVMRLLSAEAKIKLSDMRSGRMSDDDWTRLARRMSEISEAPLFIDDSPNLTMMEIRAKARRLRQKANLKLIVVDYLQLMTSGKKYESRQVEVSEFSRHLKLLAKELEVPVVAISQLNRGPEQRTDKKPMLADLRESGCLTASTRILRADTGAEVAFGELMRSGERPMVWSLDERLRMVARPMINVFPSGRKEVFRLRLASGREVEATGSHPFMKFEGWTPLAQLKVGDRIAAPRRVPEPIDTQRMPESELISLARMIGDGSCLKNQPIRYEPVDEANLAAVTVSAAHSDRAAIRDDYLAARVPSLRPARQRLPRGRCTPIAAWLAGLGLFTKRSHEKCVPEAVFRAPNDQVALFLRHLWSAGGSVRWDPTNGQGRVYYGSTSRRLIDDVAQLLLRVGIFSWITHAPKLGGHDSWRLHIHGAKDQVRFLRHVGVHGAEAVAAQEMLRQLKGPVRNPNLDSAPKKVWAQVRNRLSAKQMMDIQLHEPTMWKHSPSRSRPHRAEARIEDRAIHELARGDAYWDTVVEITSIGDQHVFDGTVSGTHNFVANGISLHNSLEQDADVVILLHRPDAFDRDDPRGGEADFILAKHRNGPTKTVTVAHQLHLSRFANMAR
As to the kind of experiment: DnaB intein splicing inhibitors, dose response, biochemical, cell-free fluorescence (AID 449749). The format is functional.

In another assay the target is T5, Protein RecA (Mycobacterium tuberculosis, UniProt P9WHJ3).
T5 sequence (P9WHJ3 whole entry): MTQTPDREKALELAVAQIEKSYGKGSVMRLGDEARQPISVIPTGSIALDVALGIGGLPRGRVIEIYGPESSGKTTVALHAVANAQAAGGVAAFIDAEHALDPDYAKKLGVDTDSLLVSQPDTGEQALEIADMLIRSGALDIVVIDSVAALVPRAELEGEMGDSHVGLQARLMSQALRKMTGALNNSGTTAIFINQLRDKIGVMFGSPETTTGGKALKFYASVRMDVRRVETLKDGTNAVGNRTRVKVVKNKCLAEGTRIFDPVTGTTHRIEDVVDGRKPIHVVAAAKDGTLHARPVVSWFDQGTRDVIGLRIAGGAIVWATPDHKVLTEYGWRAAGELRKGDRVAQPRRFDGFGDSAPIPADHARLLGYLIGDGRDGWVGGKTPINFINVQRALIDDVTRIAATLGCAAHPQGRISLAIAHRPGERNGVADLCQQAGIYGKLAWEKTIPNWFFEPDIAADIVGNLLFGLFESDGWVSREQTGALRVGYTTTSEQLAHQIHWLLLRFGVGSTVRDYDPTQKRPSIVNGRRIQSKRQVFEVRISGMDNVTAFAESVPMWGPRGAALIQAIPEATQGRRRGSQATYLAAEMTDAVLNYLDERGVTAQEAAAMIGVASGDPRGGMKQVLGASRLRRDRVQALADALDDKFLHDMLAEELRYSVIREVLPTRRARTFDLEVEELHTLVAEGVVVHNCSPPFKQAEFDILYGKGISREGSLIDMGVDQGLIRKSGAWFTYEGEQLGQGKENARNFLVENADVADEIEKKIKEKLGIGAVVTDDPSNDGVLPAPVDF
As to the kind of experiment: Fluorescence Cell-Free Homogeneous Dose Retest to Identify Inhibitors of RecA-Intein Splicing Activity. [Related pubchem assays (depositor defined):AID2097, AID2223, AID489010, AID492950]. The assay is classed as functional.

The next assay addresses Genome polyprotein (dengue virus type 2, UniProt P29990). As to the kind of experiment: Dengue-2 NS5 methyltransferase inhibitors, primary screen, biochemical, confirmation dose response (AID 588689). The format is functional.
In assay [16] the target is T6, Fatty acid synthase (Homo sapiens, UniProt P49327). Put plainly: FAS thioesterase domain inhibitors, dose response, biochemical, endpoint fluorescence intensity, uHTS hits (AID 624327).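 Further: fluorescence from hydrolysis of an O-methyl fluorescein acyl ester substrate by the enzyme.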 The assay is classed as functional.
T6 sequence (P49327 whole entry, the tested form may be a part): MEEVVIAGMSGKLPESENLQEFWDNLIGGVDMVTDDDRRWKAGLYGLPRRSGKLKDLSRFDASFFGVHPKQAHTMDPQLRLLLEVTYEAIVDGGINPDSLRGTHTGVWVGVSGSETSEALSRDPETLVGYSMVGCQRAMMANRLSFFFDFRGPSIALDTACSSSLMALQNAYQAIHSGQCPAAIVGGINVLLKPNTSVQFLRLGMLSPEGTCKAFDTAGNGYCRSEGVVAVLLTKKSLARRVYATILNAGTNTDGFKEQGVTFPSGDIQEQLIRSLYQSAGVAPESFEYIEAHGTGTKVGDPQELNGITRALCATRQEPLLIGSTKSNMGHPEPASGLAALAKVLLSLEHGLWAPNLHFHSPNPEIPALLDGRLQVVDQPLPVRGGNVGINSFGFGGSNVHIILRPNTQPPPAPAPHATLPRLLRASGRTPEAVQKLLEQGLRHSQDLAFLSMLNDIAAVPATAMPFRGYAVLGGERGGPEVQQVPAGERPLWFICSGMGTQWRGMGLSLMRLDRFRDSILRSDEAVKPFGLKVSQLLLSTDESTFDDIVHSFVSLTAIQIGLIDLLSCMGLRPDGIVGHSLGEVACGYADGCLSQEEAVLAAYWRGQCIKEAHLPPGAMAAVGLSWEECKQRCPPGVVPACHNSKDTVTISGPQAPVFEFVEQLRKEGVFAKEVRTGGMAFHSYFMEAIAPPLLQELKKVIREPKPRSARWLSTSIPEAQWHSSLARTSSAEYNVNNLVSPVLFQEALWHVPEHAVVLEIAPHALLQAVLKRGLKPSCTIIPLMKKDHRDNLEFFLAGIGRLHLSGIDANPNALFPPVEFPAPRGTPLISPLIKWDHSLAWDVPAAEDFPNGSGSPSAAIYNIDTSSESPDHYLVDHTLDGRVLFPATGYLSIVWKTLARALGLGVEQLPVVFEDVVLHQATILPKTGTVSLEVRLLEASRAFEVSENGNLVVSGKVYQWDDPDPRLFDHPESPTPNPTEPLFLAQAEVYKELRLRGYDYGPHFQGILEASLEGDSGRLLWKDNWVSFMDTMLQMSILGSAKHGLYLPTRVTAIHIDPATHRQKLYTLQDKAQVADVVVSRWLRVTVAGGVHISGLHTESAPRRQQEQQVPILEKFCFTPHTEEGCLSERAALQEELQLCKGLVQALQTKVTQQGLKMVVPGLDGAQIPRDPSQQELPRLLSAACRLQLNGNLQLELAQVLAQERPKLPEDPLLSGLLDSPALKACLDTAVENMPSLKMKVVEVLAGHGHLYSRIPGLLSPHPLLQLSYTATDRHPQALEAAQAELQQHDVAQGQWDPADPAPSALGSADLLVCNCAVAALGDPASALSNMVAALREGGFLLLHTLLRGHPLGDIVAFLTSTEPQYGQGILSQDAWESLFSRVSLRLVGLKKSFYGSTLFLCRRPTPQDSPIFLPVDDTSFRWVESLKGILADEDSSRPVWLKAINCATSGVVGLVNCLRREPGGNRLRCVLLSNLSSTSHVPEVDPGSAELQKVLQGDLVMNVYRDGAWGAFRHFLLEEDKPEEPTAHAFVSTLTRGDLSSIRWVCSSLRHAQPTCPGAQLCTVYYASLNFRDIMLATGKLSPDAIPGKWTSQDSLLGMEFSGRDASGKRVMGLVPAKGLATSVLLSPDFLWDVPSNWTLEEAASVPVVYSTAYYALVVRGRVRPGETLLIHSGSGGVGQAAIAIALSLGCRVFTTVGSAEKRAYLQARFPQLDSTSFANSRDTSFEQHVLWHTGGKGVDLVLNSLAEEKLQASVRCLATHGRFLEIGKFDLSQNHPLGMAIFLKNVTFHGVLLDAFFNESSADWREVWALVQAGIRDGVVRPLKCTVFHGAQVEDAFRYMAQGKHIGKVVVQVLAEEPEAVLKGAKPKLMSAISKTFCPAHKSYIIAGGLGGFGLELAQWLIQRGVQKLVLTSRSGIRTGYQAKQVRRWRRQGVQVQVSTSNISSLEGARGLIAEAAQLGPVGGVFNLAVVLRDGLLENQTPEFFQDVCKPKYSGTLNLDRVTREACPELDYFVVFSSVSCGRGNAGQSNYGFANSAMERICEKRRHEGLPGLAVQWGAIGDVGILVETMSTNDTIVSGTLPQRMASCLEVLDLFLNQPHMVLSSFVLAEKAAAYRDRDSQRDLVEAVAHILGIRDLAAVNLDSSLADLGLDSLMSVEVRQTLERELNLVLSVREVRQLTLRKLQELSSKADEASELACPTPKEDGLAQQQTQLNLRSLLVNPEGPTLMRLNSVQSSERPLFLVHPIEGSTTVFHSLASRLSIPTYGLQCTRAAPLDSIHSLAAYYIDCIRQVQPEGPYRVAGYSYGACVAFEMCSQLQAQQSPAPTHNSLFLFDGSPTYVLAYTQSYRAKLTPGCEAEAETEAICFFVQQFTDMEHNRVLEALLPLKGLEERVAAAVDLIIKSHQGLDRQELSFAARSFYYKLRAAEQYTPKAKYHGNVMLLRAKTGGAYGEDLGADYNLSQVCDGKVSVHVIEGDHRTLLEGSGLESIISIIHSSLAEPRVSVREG
In assay [17] the target is T6, Fatty acid synthase. As to the kind of experiment: FAS thioesterase domain inhibitors, dose response, biochemical, kinetic fluorescence intensity (AID 624326).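 Further: rate of fluorescence rise from hydrolysis of a fluorogenic O-methyl fluorescein ester substrate.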 The format is functional.

Activity calls are given as the source filed them.

DNA dC->dU-editing enzyme APOBEC-3A, sequence (P31941 whole entry): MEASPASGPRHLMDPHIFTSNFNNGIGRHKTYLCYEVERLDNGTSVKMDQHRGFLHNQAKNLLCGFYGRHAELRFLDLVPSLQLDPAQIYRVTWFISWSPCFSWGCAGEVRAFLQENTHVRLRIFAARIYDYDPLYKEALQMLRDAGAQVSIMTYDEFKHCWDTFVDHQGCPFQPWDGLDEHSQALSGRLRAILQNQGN
DNA damage-inducible transcript 3 protein, sequence (P35639 whole entry): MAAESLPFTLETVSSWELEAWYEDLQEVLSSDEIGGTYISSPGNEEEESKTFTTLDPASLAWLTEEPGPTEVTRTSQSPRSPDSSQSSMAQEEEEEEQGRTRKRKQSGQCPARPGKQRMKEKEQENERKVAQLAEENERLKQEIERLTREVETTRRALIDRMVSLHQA
DNA dC->dU-editing enzyme APOBEC-3G, sequence (Q9HC16 whole entry): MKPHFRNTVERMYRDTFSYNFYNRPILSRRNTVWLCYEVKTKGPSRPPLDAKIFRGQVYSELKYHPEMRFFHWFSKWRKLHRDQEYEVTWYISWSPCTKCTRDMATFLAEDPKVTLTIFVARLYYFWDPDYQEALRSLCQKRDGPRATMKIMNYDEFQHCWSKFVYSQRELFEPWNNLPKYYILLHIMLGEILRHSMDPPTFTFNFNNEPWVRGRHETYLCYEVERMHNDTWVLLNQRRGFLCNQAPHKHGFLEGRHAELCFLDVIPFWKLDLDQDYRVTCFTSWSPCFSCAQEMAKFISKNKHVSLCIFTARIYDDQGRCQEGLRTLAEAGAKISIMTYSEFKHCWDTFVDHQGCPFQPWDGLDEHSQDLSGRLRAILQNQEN
ADP-ribosylation factor GTPase-activating protein 1, sequence (Q62848 whole entry, the tested form may be a part): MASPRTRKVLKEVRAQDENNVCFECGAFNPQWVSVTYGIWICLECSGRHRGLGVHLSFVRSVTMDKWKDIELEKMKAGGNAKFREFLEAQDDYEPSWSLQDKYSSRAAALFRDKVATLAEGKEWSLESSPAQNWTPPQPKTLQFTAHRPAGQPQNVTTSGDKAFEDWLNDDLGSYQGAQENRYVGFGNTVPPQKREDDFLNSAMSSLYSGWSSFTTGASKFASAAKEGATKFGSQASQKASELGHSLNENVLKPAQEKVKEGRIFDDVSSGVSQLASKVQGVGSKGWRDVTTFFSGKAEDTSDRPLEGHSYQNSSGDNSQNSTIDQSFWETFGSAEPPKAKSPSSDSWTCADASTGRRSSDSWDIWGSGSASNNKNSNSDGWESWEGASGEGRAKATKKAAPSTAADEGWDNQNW

As a reminder, the IC50 is the concentration that inhibits the measured activity by half. On to `O=[N+]([O-])c1ccccc1/C=N/NC1=NCCN1`, for which the IC50 in [1] is 5.96 µM (active); in assay [2] it was 6.95 µM (active).

For orientation: CC50 means the concentration giving 50% cytotoxicity. The term AC50 denotes the concentration at which the activity in the assay is half-maximal. In general, EC50 refers to the concentration giving half of the maximal effect. As to `CCOC(=O)c1c(NC(C)=O)sc2c(OCC(O)CNC(C)(C)C)c(Br)ccc12` (stereo unspecified), the figures for the CC50 in assay [3], in assay [4] and in assay [6] were 12.5 µM (active), 11.9 µM (active) and 7.28 µM (active), respectively. Further, the IC50 in assay [5] is > 20 µM (inactive); in the assay “cells” it was 10.2 µM (active). The half-maximal activity concentration (AC50) in [7] was 7.72 µM (active); in the assay with A-375 it was 19.9 µM (active); in [8], 21 µM (active); in [9], 8.96 µM (active). Also, the EC50 in assay [10] and in [11] was > 91.2 µM (inactive) throughout.

`Cn1c(=O)n(CCOc2ccc(Cl)cc2Cl)c2ccccc21`: the “Absolute IC50 (CHOP)” value in [12] is 10 µM. Also, the “Absolute IC50 (XBP1)” value on X-box-binding protein 1 was 10 µM. The IC50 in [13] and in assay [14] was 18.4 µM (inactive) throughout.

On to `Cc1cc(C)c(S(=O)(=O)ON2C(=O)c3ccccc3C2=O)cc1C`, for which the IC50 on Prothrombin was 2.57 µM (active); at Genome polyprotein, 76.2 µM (active); on Fatty acid synthase [16], 0.744 µM (active); on Fatty acid synthase [17], 3.91 µM (active). Also, the “Absolute IC50 (CHOP)” value in assay [12] came to 10 µM. For the same compound, the AC50 in assay [15] is > 380 µM (inactive). Further, the EC50 at Protein RecA is 10.2 µM (active).

For `CC(=O)Nc1nc(CC(C)C)cc(-c2ccco2)c1C#N`, the values for the concentration for half-maximal inhibition (IC50) in [1] and in assay [2] were 4.18 µM (active) and 5.76 µM (active), respectively.
